Assay results reported in US20050090527A1, “Combination of H1, H3 and H4 receptor antagonists for treatment of allergic and non-allergic pulmonary inflammation, congestion and allergic rhinitis” (Schering Corporation, priority 2003, published 2005).
Where two headings read alike, the source gives them in different places.

Assays:
[1] = biological target: T1, human histamine H4 receptor (SP9144) (Homo sapiens, UniProt Q9H3N8); experiment: Competition binding versus [3H]-histamine on membranes of SP9144-transfected HEK293 cells
T1 construct: expressed in transfected cells; host or cells: HEK293
Method: Membrane preparation. Forty-eight hours after transfection with plasmid containing the sequence for SP9144, HEK293 cells were harvested from T150 flasks by incubating 5 minutes in 5 ml of 5 mM EDTA/Hanks' balanced salt solution followed by repeated pipeting. They were centrifuged 5 minutes at 1000×g. The EDTA/PBS was decanted and an equal volume of ice-cold 50 mM Tris-HCl, pH 7.5, was added and cells were broken up with a Polytron (PT10 tip, setting 5, 30 seconds). Nuclei and unbroken cells were sedimented at 1000×g for 10 minutes and then the supernatant was centrifuged at 50,000×g for 10 minutes. The supernatant was decanted, the pellet was resuspended by Polytron, a sample was taken for protein assay (bicinchoninic acid, Pierce; Rockford, Ill.), and the tissue was again centrifuged at 50,000×g. Pellets were stored frozen at −20° C.
Binding assay. […] Samples were filtered on GF/B filters and washed thrice with 2 ml of cold Tris buffer. Filters were dried in a microwave oven, impregnated with Meltilex wax scintillant, and counted at 45% efficiency.
Competition binding assays.
Curves were fit to the data with Prism (GraphPad Software) nonlinear least-squares curve-fitting program and Ki values were derived from IC50 values according to Cheng and Prusoff (Cheng, et al., (1973) Biochem. Pharm. 22:3099-3108).

[2] = test system: LPS-induced inflammatory response in rat airways; experiment: BAL cells recovered from LPS-challenged rats (pulmonary inflammation); assay type: in vivo; settings: for Cells (neutrophils or total cells) counted in BAL of LPS-challenged rats compared with rats treated with a blank: oral dosing five hours before LPS; for % Inhibition of neutrophilic cellular influx into BAL in response to LPS challenge / % Inhibition of total cellular influx into BAL in response to LPS challenge: 10 mg/kg orally five hours before intratracheal LPS
Method: Male Sprague-Dawley rats (250-300 g) were anesthetized by inhalation of isoflurane (flow rate 1 ml/min; supplemented with O2). Using a Penn-Centry microspray needle, 0.1 ml of a 100-μg/ml LPS solution in saline was injected into the trachea. Animals not challenged with the LPS solution received 0.1 ml of saline. Animals were placed on a heat pad until they recovered from anesthesia. Afterward, they were returned to their cages and allowed food and water ad libitum. All animals survived these manipulations and no additional interventions were required to ensure their survival. Animals fasted overnight were orally dosed with either the standard PD4 inhibitor and positive-control, SB207499 (c4-cyano-4-(3-cyclopentyloxy-4-methoxy-phenyl)-r-1-cyclohexanecarboxylic acid; Barnette, et al., (1998) J. Pharm. Exp. Ther. 284: 420-426), the compound of formula 17 or vehicle as a negative-control (0.4% methylcellulose) five hours before the LPS challenge.
At appropriate time points after intratracheal challenge with LPS, animals were surgically prepared with a tracheal cannula. Surgery was performed under anesthesia. The airways were flushed with 2×2 ml of 0.9% saline and the two washings pooled. Lavage fluid was centrifuged (350 g, 4° C., 7 minutes), supernatant aspirated, erythrocytes lysed, and pellet washed in phosphate-buffered saline containing 10% heat-inactivated fetal calf serum and 10 μg/ml DNase I. The cell suspension was centrifuged, supernatant aspirated, and pellet resuspended in the same buffer. Total cell counts were performed using a Nebauer hemacytometer. Differential cell counts were conducted on Cytospin-prepared slides stained with Fisher's Leukostat stain. At least 200 cells were assessed per slide and standard morphological criteria were used to define neutrophilic cells.
The total number of cells and the number of neutrophils in the broncheoalveolar lavage (BAL) recovered from rats treated with the compound of formula 17, SB207499 or a blank were counted and compared. Fewer cells (i.e., neutrophils or total cells) were counted in the BAL of LPS-challenged rats treated with the compound of formula 17 or with SB207499 than that of rats treated with a blank. […] The data from these experiments is set forth below in Tables 6 and 7.

[3] = biological target: T2, human H4 (H4-HEK293 cells) (Homo sapiens, UniProt Q9H3N8); experiment: Membrane binding assay, [3H]-histamine, for H4 binding
T2 construct: expressed in transfected cells
Method: (§1) In the present example, the affinities of several compounds for the H1, H3 and H4 receptors was determined by a membrane binding assay.
(§2) Materials. Rat and guinea-pig brains were obtained frozen from Rockland Immunochemicals (Gilbertsville, Pa.). Cell lines expressing recombinant human receptors were generated by using standard transfection techniques. The following radioligands were obtained from Dupont NEN (Boston, Mass.): [^3H]-pyrilamine, 23 Ci/mmol, for H1 binding; [^3H]-N′-methylhistamine, 82 Ci/mmol, for H3 binding and [^3H]-histamine, 20 Ci/mmol, for H4 binding.
(§3) Methods. Recombinant cell lines (i.e., human H1-CHO cells, human H3-HEK293 and human H4-HEK293 cells) were cultured in Dulbecco's modified Eagle's medium/10% fetal bovine serum supplemented with 2 mM glutamine, penicillin (100 U/ml), and streptomycin (100 μg/ml) in a humidified 5% CO2 atmosphere at 37° C. Selection was maintained with 0.5 mg geneticin/ml. Cells were harvested for membrane preparation by aspirating media, replacing it with Hanks' balanced salt solution/5 mM EDTA, and incubating flasks for 10 minutes at 37° C. Cells were pelleted by centrifugation at 1000×g for ten minutes at 4° C.
(§4) Membrane preparation. Membranes were prepared by disrupting cells or tissue in at least ten volumes of ice-cold 50 mM Tris-HCl, pH 7.5 at 25° C., with a Polytron. homogenates were centrifuged ten minutes at 1000×g and the supernatants were then centrifuged for ten minutes at 50,000×g. Pellets from this centrifugation step were resuspended with a Polytron, a sample was taken for protein determination (BCA; Pierce; Rockford, Ill.), and the resuspension was again centrifuged at 50,000×g. Brain membranes were stored as pellets, cell membranes as suspensions of 1 mg protein/ml Tris buffer at −20° C.
(§5) Binding assays. […] Assay mixtures were incubated for 30 minutes at 30° C. in polypropylene, 96-well, deep-well plates then filtered through 0.3% polyethylenimine-soaked GF/B filters. These were washed three times with 1.2 ml of Tris buffer, dried in a microwave oven, impregnated with Meltilex wax scintillant and counted at 40% efficiency in a Betaplate scintillation counter (Wallac). IC50 values were determined by interpolation or by nonlinear, least-squares, curve-fitting with the Prism program (GraphPad Software). Ki values were determined in the manner of Cheng and Prusoff (Cheng, et al., (1973) Biochem. Pharm. 22:3099-3108).

human H1 (H1-CHO cells) = biological target: T3, human H1 (H1-CHO cells) (Homo sapiens, UniProt P35367); experiment: Membrane binding assay, [3H]-pyrilamine, for H1 binding; settings: for H1 Ki, value given in %: concentration not given
T3 construct: expressed in transfected cells
Method: as §1, §2, §3, §4, §5

[4] = biological target: T4, human H3 (H3-HEK293 cells) (Homo sapiens, UniProt Q9Y5N1); experiment: Membrane binding assay, [3H]-N-methylhistamine, for H3 binding; settings: concentration not given
T4 construct: expressed in transfected cells
Method: Materials. Rat and guinea-pig brains were obtained frozen from Rockland Immunochemicals (Gilbertsville, Pa.). Cell lines expressing recombinant human receptors were generated by using standard transfection techniques.
Methods. […] Selection was maintained with 0.5 mg geneticin/ml. Cells were harvested for membrane preparation by aspirating media, replacing it with Hanks' balanced salt solution/5 mM EDTA, and incubating flasks for 10 minutes at 37° C. Cells were pelleted by centrifugation at 1000×g for ten minutes at 4° C.
Membrane preparation. […] Pellets from this centrifugation step were resuspended with a Polytron, a sample was taken for protein determination (BCA; Pierce; Rockford, Ill.), and the resuspension was again centrifuged at 50,000×g. Brain membranes were stored as pellets, cell membranes as suspensions of 1 mg protein/ml Tris buffer at −20° C.
Binding assays. […] Assay mixtures were incubated for 30 minutes at 30° C. in polypropylene, 96-well, deep-well plates then filtered through 0.3% polyethylenimine-soaked GF/B filters. These were washed three times with 1.2 ml of Tris buffer, dried in a microwave oven, impregnated with Meltilex wax scintillant and counted at 40% efficiency in a Betaplate scintillation counter (Wallac). IC50 values were determined by interpolation or by nonlinear, least-squares, curve-fitting with the Prism program (GraphPad Software).

[5] = 18 nM [3H]-histamine, cells printed in μM
[6] = membrane binding, [3H]-histamine, read-out: H4 Ki

T3 sequence (P35367 whole entry): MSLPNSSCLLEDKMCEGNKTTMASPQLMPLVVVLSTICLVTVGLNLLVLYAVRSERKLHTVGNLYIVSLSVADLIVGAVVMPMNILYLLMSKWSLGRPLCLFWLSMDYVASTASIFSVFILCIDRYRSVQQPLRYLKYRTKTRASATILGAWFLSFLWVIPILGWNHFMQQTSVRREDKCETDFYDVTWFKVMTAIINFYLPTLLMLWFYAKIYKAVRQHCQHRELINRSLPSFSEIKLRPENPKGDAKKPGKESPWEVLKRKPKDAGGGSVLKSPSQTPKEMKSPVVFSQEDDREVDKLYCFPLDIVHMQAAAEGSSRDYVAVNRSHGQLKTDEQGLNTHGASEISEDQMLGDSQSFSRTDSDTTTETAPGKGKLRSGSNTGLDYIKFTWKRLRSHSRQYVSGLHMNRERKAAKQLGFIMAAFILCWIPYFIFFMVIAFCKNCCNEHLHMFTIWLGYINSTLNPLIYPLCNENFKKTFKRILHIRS
T2 sequence (Q9H3N8 whole entry): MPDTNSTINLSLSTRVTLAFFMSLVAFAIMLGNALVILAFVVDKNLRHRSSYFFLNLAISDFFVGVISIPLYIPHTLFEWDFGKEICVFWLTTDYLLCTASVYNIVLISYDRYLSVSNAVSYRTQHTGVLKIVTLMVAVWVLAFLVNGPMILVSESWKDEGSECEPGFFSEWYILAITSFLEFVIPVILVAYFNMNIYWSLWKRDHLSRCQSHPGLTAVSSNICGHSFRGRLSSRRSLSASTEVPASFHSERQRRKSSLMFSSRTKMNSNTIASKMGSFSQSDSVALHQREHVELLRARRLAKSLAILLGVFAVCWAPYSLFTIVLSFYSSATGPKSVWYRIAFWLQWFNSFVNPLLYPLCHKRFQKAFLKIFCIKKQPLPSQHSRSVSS
T1 sequence (Q9H3N8 whole entry): as above
T4 sequence (Q9Y5N1 whole entry): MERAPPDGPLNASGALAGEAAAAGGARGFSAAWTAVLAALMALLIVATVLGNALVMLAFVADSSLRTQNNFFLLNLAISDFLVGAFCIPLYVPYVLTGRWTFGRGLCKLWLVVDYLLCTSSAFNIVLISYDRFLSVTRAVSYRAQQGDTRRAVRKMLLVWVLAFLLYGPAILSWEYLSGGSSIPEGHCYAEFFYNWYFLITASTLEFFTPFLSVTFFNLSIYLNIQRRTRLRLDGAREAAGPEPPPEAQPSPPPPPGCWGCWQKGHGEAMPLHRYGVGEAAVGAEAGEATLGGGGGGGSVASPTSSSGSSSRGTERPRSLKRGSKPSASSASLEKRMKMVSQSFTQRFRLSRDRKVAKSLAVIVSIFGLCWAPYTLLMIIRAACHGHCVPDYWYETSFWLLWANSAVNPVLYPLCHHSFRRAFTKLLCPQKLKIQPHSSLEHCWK

## C[C@@H](N)Cc1c[nH]cn1 [(R)-α-methylhistamine]
[1]
  Ki: 0.14 ± 0.01 µM

## C[C@H](N)Cc1c[nH]cn1 [(S)-α-methylhistamine]
[1]
  Ki: 3.4 ± 0.3 µM

## CN(C)CCC(c1ccc(Cl)cc1)c1ccccn1 (stereo not shown) [Chlorpheniramine]
[1]; [5]
  Ki: > 10 µM

## CN/C(=N/CCSCc1nc[nH]c1C)NC#N [Cimetidine]
[1]; [5]
  Ki: > 10 µM

## NC(=NCc1ccc(Cl)cc1)SCCCc1cnc[nH]1 [Clobenpropit]
[1]
  Ki: 0.0072 ± 0.0005 µM

## CN(C)CCCSC(=N)N [Dimaprit]
[1]; read-out: Ki ± SEM versus [3H]histamine binding to SP9144-transfected HEK293 cells, 18 nM [3H]-histamine, 70 μg membrane protein, Ki from IC50 by Cheng and Prusoff
  Ki: 0.38 ± 0.07 µM

## Nc1ncc(CN2CCC(F)(C(=O)N3CCC(n4c(-c5ccccn5)nc5cccnc54)CC3)CC2)cn1 [Formula 17]
[2]
  Cells (neutrophils or total cells) counted in BAL of LPS-challenged rats compared with rats treated with a blank: Fewer cells

## NC(=NCc1ccc(Cl)cc1)SCCCc1cnc[nH]1 [Formula 18]
[3]
  Ki: 0.034 µM

## O=C(c1cnc2ccccc2c1)N1CCC(Cc2c[nH]cn2)CC1 [Formula 19]
[3]; [6]
  Ki: 0.038 µM
Human H1 (H1-CHO cells)
  H1 Ki, value given in %: 0%
[2]
  % Inhibition of neutrophilic cellular influx into BAL in response to LPS challenge: 71.6%
  % Inhibition of total cellular influx into BAL in response to LPS challenge: 64.5%

## O=C(c1ccccn1)N1CCC(Cc2c[nH]cn2)CC1 [Formula 20]
[3]; [6]
  Ki: 0.038 µM

## CC(C)(C)CCC#C[C@@H]1C[C@H]1c1c[nH]cn1 [Formula 21]
[3]; [6]
  Ki: 0.09 µM

## O=C(CCN1CCC(Cc2c[nH]cn2)CC1)Nc1cccc(Cl)c1 [Formula 22]
[3]; [6]
  Ki: 0.092 µM

## O=S(=O)(c1ccc(Cl)cc1)N1CCC(CCc2c[nH]cn2)C1 (stereo not shown) [Formula 23]
[3]; [6]
  Ki: 0.205 µM

## c1nc(CC2CCN(CCCOc3ccc(CN4CCCCC4)cc3)CC2)c[nH]1 [Formula 24]
[3]; [6]
  Ki: 0.29 µM

## O=C(CCN1CCC(Cc2c[nH]cn2)CC1)NCCc1ccc(Cl)cc1 [Formula 25]
[3]; [6]
  Ki: 0.3 µM

## O=C(NCc1ccc(Cc2c[nH]cn2)cc1)Nc1cc(Cl)cc(Cl)c1 [Formula 26]
[3]; [6]
  Ki: 0.32 µM
Human H1 (H1-CHO cells)
  H1 Ki, value given in %: 0%

## CN1CCC(N(C)Cc2ccc(OCCCN3CCC(Cc4c[nH]cn4)CC3)cc2)CC1 [Formula 27]
[3]; [6]
  Ki: 0.325 µM

## Clc1ccc(C(=C2CCN(CCCCc3c[nH]cn3)CC2)c2ccccn2)cc1 [Formula 28]
[3]; [6]
  Ki: 0.39 µM

## c1ccc2c(c1)C1CC(CNCCCCc3c[nH]cn3)C2c2ccccc21 (stereo not shown) [Formula 29]
[3]; [6]
  Ki: 0.44 µM

## Clc1ccc(C(CCNCCCCc2c[nH]cn2)c2ccccn2)cc1 (stereo not shown) [Formula 30]
[3]; [6]
  Ki: 0.48 µM

## Clc1ccc(C(=C2CCN(CCCCCc3c[nH]cn3)CC2)c2ccccn2)cc1 [Formula 31]
[3]; [6]
  Ki: 0.77 µM

## CC(C)(C)c1ccc(S(=O)(=O)NCCCCc2c[nH]cn2)cc1 [Formula 32]
[3]; [6]
  Ki: 0.85 µM
Human H1 (H1-CHO cells)
  H1 Ki, value given in %: 32%

## C/C(=C\C(=O)Nc1ccc(Cl)cc1)c1ccc(Cc2c[nH]cn2)cc1 [Formula 33]
[3]; [6]
  Ki: 0.87 µM

## O=C(NCCCCc1c[nH]cn1)C1(c2ccc(Cl)cc2)CCC1 [Formula 34]
[3]; [6]
  Ki: 1.1 µM
Human H1 (H1-CHO cells)
  H1 Ki, value given in %: 48%

## O=C(/C=C/c1ccc(Cc2c[nH]cn2)cc1)NCCc1ccc(Cl)cc1 [Formula 35]
[3]; [6]
  Ki: 1.1 µM
Human H1 (H1-CHO cells)
  H1 Ki, value given in %: 0%

## CC(C)(C(=O)O)c1ccc(C(=O)CCCN2CCC(OC(c3ccccc3)c3ccccc3)CC2)cc1 [Formula 36]
[3]; concentration not given
  H4 Ki column, value given in %: 2%
[4]
  H3 Ki column, value given in %: 1%
Human H1 (H1-CHO cells); membrane binding, [3H]-pyrilamine
  Ki: 0.015 µM

## N=C(N)SCCc1cnc[nH]1 [Imetit]
[1]
  Ki: 0.0031 ± 0.0007 µM

## CNCCc1c[nH]cn1 [N^α-methylhistamine]
[1]
  Ki: 0.063 ± 0.002 µM

## COc1ccc([C@]2(C#N)CC[C@@H](C(=O)O)CC2)cc1OC1CCCC1 [SB207499, c4-cyano-4-(3-cyclopentyloxy-4-methoxy-phenyl)-r-1-cyclohexanecarboxylic acid, reference compound]
[2]
  % Inhibition of neutrophilic cellular influx into BAL in response to LPS challenge: 68.7%
  % Inhibition of total cellular influx into BAL in response to LPS challenge: 61.2%
  Cells (neutrophils or total cells) counted in BAL of LPS-challenged rats compared with rats treated with a blank: Fewer cells
